Converted amounts (≈) assume the structure as drawn. Like-named read-outs stand apart in the source and are kept apart here.

We go through 1 compound from article PMC11237774, “On-target, dual aminopeptidase inhibition provides cross-species antimalarial activity” (mBio, 2024).

Data set [1] concerns human M1 aminopeptidase insulin-regulated aminopeptidase (IRAP). Also noted: method as in PMID 30537832. The conditions noted are these: tested up to 200 µM; cited from earlier work.
The next data set addresses T1, HDAC2 (Homo sapiens, UniProt Q92769).
T1 construct: Eurofins Cerep (contract screen)
The data set can be described thus: Eurofins Cerep safety pharmacology screening. It counts as biochemical. The conditions noted are these: read-out: Mean % inhibition (n=2); HDAC2, 10 µM. An excerpt: (§1) Results showing any inhibition or stimulation higher than 50% are considered to represent significant effects of the test compounds.

A further data set addresses T2, MMP-8 (Homo sapiens, UniProt P22894).
T2 construct: Eurofins Cerep (contract screen)
The data set is described as follows: Eurofins Cerep safety pharmacology screening. It counts as biochemical. The conditions noted are these: read-out: Mean % inhibition (n=2), MMP-8, 10 µM.
Source text: as §1

A further data set deals with T3, MMP-9 (Homo sapiens, UniProt P14780).
T3 construct: Eurofins Cerep (contract screen)
The data set can be described thus: Eurofins Cerep safety pharmacology screening. It counts as biochemical. The conditions noted are these: read-out: Mean % inhibition (n=2); MMP-9, 10 µM.
Source text: as §1

In the next data set the target is T4, HDAC10 (Homo sapiens, UniProt Q969S8).
T4 construct: Eurofins Cerep (contract screen)
The data set is described as follows: Eurofins Cerep safety pharmacology screening. It counts as biochemical. The conditions noted are these: read-out: Mean % inhibition (n=2); HDAC10, 10 µM.
Source text: as §1

The target of a further data set is T5, MMP-3 (Homo sapiens, UniProt P08254).
T5 construct: Eurofins Cerep (contract screen)
The data set can be described thus: Eurofins Cerep safety pharmacology screening. It counts as biochemical. The conditions noted are these: read-out: Mean % inhibition (n=2); MMP-3, 10 µM.
Source text: as §1

Data set [2] is described as follows: Kinetic solubility by nephelometry. It counts as physicochemical. How it is done: Preliminary studies were conducted to assess the in vitro absorption, distribution, metabolism, and excretion (ADME) properties and in vivo mouse exposure of MMV1557817 following single oral dosing. Kinetic solubility was conducted using nephelometry based on a modification of a previously published method ([45]). Briefly, compound was dissolved in DMSO and spiked into either pH 6.5 phosphate buffer (to reflect the pH of the fasted state upper small intestine) or 0.01 M HCl (to reflect gastric pH 1.5–2) with a final DMSO concentration of 1% (vol/vol) and final concentrations ranging from 1 to 100 µg/mL. Samples were analyzed by nephelometry to determine the concentration above which precipitation occurred.

The nature of data set [3]: Plasma protein binding by ultracentrifugation. It counts as in vitro ADME. The conditions noted are these: plasma (10% plasma diluted with PBS), pH 7.4. The protocol:
Human plasma was obtained from the Volunteer Blood Donor Registry (Walter & Eliza Hall Institute, Melbourne, Australia), rat plasma was from male Sprague-Dawley rats (Animal Resource Centre, Perth, Western Australia) and mouse plasma was procured as described above. RPMI-1640 media supplemented with 25 mM HEPES, 2 g/L sodium bicarbonate, and 100 mg/L neomycin were additionally supplemented with 5 […] on the day prior to binding assessment. […] Additional aliquots of spiked matrix were maintained at 37°C for 4.2 h but not centrifuged to serve as controls for stability assessment and to obtain a measure of the total concentration in each matrix. Following centrifugation, aliquots of the protein-free supernatant and the non-centrifuged matrix controls were “matrix matched” by addition of an equal volume of the opposite medium (i.e., either blank buffer or blank matrix) and assayed as described above with comparison to calibration standards prepared in 50% matrix/50% PBS.

The next data set deals with T6, PfA-M17 (Plasmodium falciparum, UniProt Q8IL11).
T6 construct: made in house
The data set can be described thus: Recombinant aminopeptidase fluorescence assay (H-Leu-NHMec). The conditions noted are these: Pf M17, Morrison equation; read-out: Ki^(app) ± SEM. It counts as biochemical, P. falciparum. The protocol:
Inhibition of aminopeptidase activity assays were performed against nine aminopeptidases: the M1 alanyl and M17 leucyl aminopeptidases from P. falciparum (PfA-M1; PfA-M17), P. vivax (Pv-M1; Pv-M17), and P. berghei (Pb-M1; Pb-M17), and three human M1 homologs: LTA4H (OriGene TP307617), ERAP1 (OriGene TP314469), and ERAP2 (Creative BioMart ERAP2-304H). The Plasmodium enzymes were produced recombinantly as described previously ([16], [17]), and the human recombinant enzymes were purchased from commercial suppliers as indicated.
The concentration of H-Leu-NHMec in the assay was held constant for each enzyme and ranged from 10 to 100 µM, depending on the enzyme. Reactions were measured at 37°C in white 384-well plates in a total volume of 25 or 50 µL using a spectrofluorimeter (BMG FLUOstar) with excitation at 355 nm and emission at 460 nm. The fluorescence signal was continuously monitored until a final steady-state velocity, v, was obtained. Inhibition constants were calculated from biological triplicates made from three different protein preparations.
Substrate concentrations were selected to allow sensitive detection of enzyme activity while not exceeding the Km for each enzyme. A compound concentration range was selected to obtain a complete inhibition curve (0%–100 %) in biological triplicate. Where possible, the Ki values were calculated by plotting the initial rates versus inhibitor concentration and fitting to the Morrison equation for tight-binding inhibitors in GraphPad Prism (V.8.4.1; non-linear regression method).

The test system of another data set is Cam3.1 (MRA1240). The data set can be described thus: microbe, parasite or virus in culture. It counts as cell-based, P. falciparum. The conditions noted are these: Plasmodium falciparum, read-out: EC50 nM (mean). The protocol: (§2) In vitro testing was performed using the modified [^3H]hypoxanthine incorporation assay, as previously reported ([34]). The specific mutations in the field isolates (see Table 1, top six strains) have been previously described ([35], [36]), as have the specific mutations in the laboratory-selected Dd2 parasites (see Table 1, remaining five strains) ([36]).

The subject of a further data set is TM90C2B. The data set is described as follows: microbe, parasite or virus in culture. It counts as cell-based, P. falciparum. The conditions noted are these: Plasmodium falciparum, read-out: EC50 nM (mean). How it is done:
as §2

Data set [4] can be described thus: Metabolic stability in liver microsomes. It counts as in vitro ADME. The conditions noted are these: read-out: in vitro microsomal CLint. How it is done: Samples were collected over the incubation period, quenched by the addition of an equal volume of acetonitrile, and analyzed using a Waters Acquity UPLC and Xevo G2 QTOF mass spectrometer with positive electrospray ionization under the MS^E mode. The natural log of the substrate concentration was plotted against the incubation time to determine the first-order degradation rate constant which was normalized to the microsomal protein concentration to give the in vitro intrinsic clearance (in vitro CLint, µL/min/mg microsomal protein). […] Cell viability was determined by Trypan Blue exclusion. At various times over the incubation period, samples were quenched with the addition of an equal volume of acetonitrile and analyzed as described above. Metabolite identification was conducted by accurate mass and tandem mass spectrometry (MS/MS) analysis.
A general note: Liver microsomes are a subcellular fraction often used to study metabolism.

Data set [5] has as its system P. falciparum Dd2 parasites. The data set can be described thus: Fractional inhibitory concentration, artemisinin and MMV1557817 interaction. It counts as cell-based. The protocol:
Fractional inhibitory concentrations (FIC) were determined as previously described ([44]). […] The FIC for each drug was determined by EC50 of drug in a mixture/EC50 of drug alone, and the sum of FIC was determined by the addition of the two individual FIC values. Synergistic FIC is described as <1, additive = 1 < 2, and antagonism > 2 ([44]).

T2 sequence (P22894 101-467): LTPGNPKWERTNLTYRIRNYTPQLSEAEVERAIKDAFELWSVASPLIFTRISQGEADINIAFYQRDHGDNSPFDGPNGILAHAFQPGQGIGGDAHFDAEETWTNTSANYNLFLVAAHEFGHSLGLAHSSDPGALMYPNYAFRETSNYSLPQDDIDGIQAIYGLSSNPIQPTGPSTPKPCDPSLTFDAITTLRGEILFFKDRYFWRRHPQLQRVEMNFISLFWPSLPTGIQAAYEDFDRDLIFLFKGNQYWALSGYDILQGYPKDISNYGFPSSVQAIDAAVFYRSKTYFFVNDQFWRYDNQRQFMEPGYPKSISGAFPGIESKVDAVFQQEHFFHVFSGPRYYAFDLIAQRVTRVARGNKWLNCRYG
T3 sequence (P14780 94-707): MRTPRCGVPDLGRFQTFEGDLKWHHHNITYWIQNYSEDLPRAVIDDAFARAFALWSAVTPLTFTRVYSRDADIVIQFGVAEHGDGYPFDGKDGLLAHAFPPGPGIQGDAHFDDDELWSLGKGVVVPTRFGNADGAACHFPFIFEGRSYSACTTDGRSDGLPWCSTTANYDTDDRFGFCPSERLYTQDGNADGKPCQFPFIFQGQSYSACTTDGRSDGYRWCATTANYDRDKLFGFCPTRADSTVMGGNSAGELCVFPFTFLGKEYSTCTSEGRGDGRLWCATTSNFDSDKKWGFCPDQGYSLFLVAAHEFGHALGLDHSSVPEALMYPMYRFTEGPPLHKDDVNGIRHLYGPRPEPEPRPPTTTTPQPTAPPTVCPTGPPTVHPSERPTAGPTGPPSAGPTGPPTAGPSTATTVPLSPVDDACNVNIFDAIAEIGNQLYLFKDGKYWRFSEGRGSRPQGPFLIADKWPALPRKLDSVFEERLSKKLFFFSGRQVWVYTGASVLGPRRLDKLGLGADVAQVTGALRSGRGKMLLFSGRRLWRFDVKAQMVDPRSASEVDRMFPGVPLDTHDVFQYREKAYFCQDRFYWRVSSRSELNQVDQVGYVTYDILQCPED
T4 sequence (Q969S8 whole entry): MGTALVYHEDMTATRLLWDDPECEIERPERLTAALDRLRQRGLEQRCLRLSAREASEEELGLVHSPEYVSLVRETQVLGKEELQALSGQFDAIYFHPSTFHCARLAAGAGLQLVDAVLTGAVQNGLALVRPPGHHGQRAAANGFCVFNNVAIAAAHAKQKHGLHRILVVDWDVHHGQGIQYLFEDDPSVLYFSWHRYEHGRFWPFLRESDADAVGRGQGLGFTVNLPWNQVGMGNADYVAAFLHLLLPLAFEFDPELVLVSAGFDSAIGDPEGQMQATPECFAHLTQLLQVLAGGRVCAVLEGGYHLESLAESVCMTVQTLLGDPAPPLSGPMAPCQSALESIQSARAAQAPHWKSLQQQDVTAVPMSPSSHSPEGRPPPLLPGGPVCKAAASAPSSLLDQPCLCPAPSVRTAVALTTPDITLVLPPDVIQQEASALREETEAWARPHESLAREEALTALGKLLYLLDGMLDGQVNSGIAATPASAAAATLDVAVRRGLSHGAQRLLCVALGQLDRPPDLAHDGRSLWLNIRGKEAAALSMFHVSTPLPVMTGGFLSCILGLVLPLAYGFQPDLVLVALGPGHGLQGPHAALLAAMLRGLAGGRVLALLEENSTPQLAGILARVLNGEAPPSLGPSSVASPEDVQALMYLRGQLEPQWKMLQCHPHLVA
T6 sequence (Q8IL11 84-605): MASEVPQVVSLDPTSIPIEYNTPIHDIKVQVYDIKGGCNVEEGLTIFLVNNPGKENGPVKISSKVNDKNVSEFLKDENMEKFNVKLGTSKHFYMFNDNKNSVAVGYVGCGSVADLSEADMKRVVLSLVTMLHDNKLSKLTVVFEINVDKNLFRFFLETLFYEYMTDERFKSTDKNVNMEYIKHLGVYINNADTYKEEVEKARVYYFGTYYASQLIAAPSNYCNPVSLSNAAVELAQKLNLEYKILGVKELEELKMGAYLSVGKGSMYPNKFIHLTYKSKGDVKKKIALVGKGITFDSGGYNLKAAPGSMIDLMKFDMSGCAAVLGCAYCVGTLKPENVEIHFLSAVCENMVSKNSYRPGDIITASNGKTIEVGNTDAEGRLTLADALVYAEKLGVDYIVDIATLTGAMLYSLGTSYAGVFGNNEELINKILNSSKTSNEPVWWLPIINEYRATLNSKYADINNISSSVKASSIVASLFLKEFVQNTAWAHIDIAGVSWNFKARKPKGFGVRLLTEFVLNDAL
T1 sequence (Q92769 whole entry): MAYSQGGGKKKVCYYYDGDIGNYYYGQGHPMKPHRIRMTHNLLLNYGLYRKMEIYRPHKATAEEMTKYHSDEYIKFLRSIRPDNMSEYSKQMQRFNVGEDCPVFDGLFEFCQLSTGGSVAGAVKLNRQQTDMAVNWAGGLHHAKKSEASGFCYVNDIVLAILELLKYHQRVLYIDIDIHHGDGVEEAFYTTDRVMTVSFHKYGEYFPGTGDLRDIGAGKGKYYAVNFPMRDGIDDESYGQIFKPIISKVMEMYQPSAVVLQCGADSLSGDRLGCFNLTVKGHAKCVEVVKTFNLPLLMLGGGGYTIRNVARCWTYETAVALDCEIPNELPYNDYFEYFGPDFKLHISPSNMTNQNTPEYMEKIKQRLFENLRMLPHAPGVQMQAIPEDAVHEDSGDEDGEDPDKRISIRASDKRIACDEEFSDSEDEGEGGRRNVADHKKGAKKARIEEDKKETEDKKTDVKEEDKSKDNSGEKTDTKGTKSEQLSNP
T5 sequence (P08254 100-477): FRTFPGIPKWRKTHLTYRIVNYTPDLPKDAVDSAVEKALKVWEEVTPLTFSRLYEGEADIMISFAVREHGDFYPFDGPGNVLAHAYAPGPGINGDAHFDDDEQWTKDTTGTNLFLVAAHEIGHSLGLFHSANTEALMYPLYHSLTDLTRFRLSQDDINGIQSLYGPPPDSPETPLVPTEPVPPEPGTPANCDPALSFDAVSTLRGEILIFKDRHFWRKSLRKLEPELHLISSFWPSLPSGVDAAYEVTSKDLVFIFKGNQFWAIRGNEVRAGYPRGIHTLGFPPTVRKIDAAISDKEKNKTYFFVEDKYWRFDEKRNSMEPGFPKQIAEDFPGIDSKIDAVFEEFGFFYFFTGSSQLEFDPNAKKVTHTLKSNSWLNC

In general, inhibition refers to the relative decrease from the control value, in per cent. Usually kinetic solubility stands for solubility judged after dilution from a stock solution rather than from solid. For orientation: fraction unbound means free concentration divided by total concentration. Broadly, the EC50 is the concentration giving half of the maximal effect. By microsomal CLint is commonly meant the rate of metabolic loss divided by the concentration. On to `CC(C)(C)CC(=O)NC(C(=O)NO)c1ccc(-c2cc(F)c(F)c(F)c2)cc1` (stereo not drawn) [MMV1557817, N-(2-(hydroxyamino)−2-oxo-1-(3′,4′,5′-trifluoro-[1,1′-biphenyl]-4-yl)ethyl)-3,3-dimethylbutanamide], for which the off-target inhibition entry in data set [1] is “limited off-target inhibitory affects”. Further, the inhibition at 10 µM was 3% on HDAC2; 52.6% at MMP-8; 46.3% on MMP-9; 5.3% at HDAC10; -0.8% on MMP-3. Besides, the solubility (kinetic) in data set [2] (pH 2.0 (0.01 M HCl)) and in data set [2] (pH 6.5 phosphate buffer) was 12.5 to 25 µg/mL (≈ 31.7 to 63.4 µM) each time. Also, the fraction unbound at 4.2 h is 0.022 in [3] (male, Sprague-Dawley, rat plasma) and 0.023 in data set [3] (mouse plasma). Moreover, the Ki at PfA-M17 was determined as 112 nM. Moreover, the EC50 in the data set on Cam3.1 (MRA1240) was found to be 23 nM; with TM90C2B it was 21 nM. In addition, the microsomal CLint at 1 µM in data set [4] (human liver microsomes) stood at 11 µL/min/mg; in data set [4] (mouse liver microsomes), 23 µL/min/mg; in [4] (rat liver microsomes) it was 29 µL/min/mg. Further, the “MMV1557817 mean FIC ± SEM” value was 0.87 ± 0.08 in data set [5] (ratio MMV1557817:artemisinin 1:4); 1.13 ± 0.19 in [5] (ratio MMV1557817:artemisinin 2:3); 1.10 ± 0.20 in data set [5] (ratio MMV1557817:artemisinin 3:2); 1.05 ± 0.18 in data set [5] (ratio MMV1557817:artemisinin 4:1); 1.00 ± 0.19 in data set [5] (ratio MMV1557817:artemisinin 5:0).
